“And” between values parts separate entries of the source, which are not always exact repeats. Equal entries are not always repeated. Where two headings read alike, the source gives them in different places.
Assays:
AhR [1] = assay: AhR antagonist screening using Tg(cyp1a:egfp) zebrafish; assay type: in vivo; design: key to AhR Antagonist Activity at 100 nM: - no inhibition; + weak; ++ mild; +++ moderate; ++++ high; +++++ very high; conditions: for AhR antagonistic activity in zebrafish, in words: Tg(cyp1a:egfp) zebrafish, EGFP readout; for AhR Antagonist Activity at 100 nM: extent of GFP reduction in Tg(cyp1a:egfp) zebrafish compared to the TCDD (2 nM) control, 48 h
Method: At 30 hpf, Tg(cyp1a:egfp) embryos were placed in a 2-mL screw-capped glass vial with five embryos per vial. Each vial contained 1 mL of E3 media (5 mM NaCl, 0.17 mM KCl, 0.33 mM CaCl2·2H2O and 0.4 mM MgCl2·6H2O, pH 7.2) and supplemented with 2 nM TCDD (1746-01-6; AccuStandard Inc., New Haven, NH, USA) dissolved in DMSO. The compounds were subsequently diluted and individually introduced into the vials, achieving a final concentration of 0.1% DMSO. The embryos were then incubated for 48 h and then embryonic EGFP expression was evaluated using a fluorescent stereomicroscope (SteREO Discovery V8; Zeiss, Oberkochen, BW, Germany). As a positive control, StemRegenin1 (72342, […] Technologies, Vancouver, BC, Canada) was employed.
To evaluate AhR antagonistic activity, we conducted an AhR antagonist assay using transgenic zebrafish. Zebrafish have garnered significant attention as model organisms for drug discovery because they share metabolic pathways with mammals. […] Therefore, we synthesized more meta substituted phenyl derivatives. […] We also synthesized heteroaromatic derivatives including pyrimidine and pyridine at 5-position; however, their activities were decreased.

AhR [2] = biological target: T1, AhR (Danio rerio, UniProt Q9YGV3); design: method as in PMID 34223158, PMID 10913616, PMID 31358358; conditions: reported AhR antagonists, Figure 2; cited from earlier work
MC38 tumor = assay: In vivo therapy, MC38 syngeneic model; design: species or system mice; conditions: MC38 model, comparison of 7k and 3′,4′-dimethoxyflavone, 10 mg/kg oral once a day, 18 days
Method: In vivo experiments were conducted using 6-week-old male immunocompetent BALB/c and C57BL/6 with 18–20 g body weight (Orient Bio Inc., Seungnam, Republic of Korea). All animal experimental procedures were maintained and used in accordance with the Guidelines for the Care and Use of Laboratory Animals of the Institute of Laboratory Animal Center, Daegu-Gyeongbuk Medical Innovation Foundation (K-MEDI hub). The animal studies were conducted after approval by the institutional reviewer board on the Ethics of Animal Experiments of the Daegu-Gyeongbuk Medical Innovation Foundation (approval number: KMEDI-24041103-01).
Study 1: Antitumor activity of 7k alone in mice with either CT26 syngeneic model or MC38 syngeneic model. Mice were subcutaneously challenged with 5 × 10^5 either MC38 or CT26 cells. […]
The 7k was dissolved in solution including 5% DMSO, 55% DW, and 40% PEG. Tumor size was measured with a caliper at the indicated time points, and tumor volume (mm^3) was calculated using the following formula, tumor volume (mm^3) = d2 × D/2, where d and D are the shortest and longest diameters in mm, respectively.

AhR [3] = biological target: T1, AhR; assay: IC50 determination, Cyp1a dual luciferase reporter assay in transfected COS-7 cells; assay type: cell-based; conditions: AhR2/ARNT-1c/Cyp1a-luciferase, TCDD 10 nM
Method: All experiments were conducted as described previously unless stated otherwise. COS-7 cells were seeded onto 24-well plate until approximately 65% confluency. The cells were transfected with ARNT-1c expression plasmid (50 ng), AhR2 expression plasmid (5 ng), Cyp1a-firefly luciferase reporter plasmid (20 ng) and pRL-TK Renilla luciferase plasmid (2 ng) using Lipofectamine 3000 (Thermo Fisher Scientific) according to the manufacturer’s protocol. The pEGFP-C1 plasmid (Clontech, Tempe, AZ, USA) was used to assess the transfection efficiency. At 5 h post transfection, serially diluted test compounds at indicated concentration were added to the cells. Simultaneously, TCDD (10 nM) or indicated compounds with the highest concentration were added in the control wells. At 1 h post compound treatment, TCDD (10 nM) was added to all wells except the control wells. At 18 h post TCDD treatment, the medium was removed, and the cells washed with Dulbecco’s phosphate buffered saline (DPBS) and harvested using 1x Passive Lysis Buffer (Promega, Madison, WI, USA). The dual luciferase assay was carried out using a Dual-Luciferase Reporter Assay System (Promega, Madison, WI, USA) and an Orion L Microplate Luminometer (Titertek Berthold, Pforzheim, BW, Germany) as per manufacturer’s protocol. The relative light unit (RLU) values were normalized and expressed as toxic induced ratio (TIR). IC50 was determined using Prism 9.0 (GraphPad Software).

[4] = tested on: normal cells (CHO, L929, CCD-18Co); assay: Cell viability assay (CCK-8), normal cells; assay type: cell-based; conditions: 24 h, 7k: CHO, SR-1: CCD-18Co
Method: (§1) Chinese hamster ovary CHO cells, mouse fibroblast L929 cells, normal colon CCD18-Co cells, monkey kidney fibroblast COS-7 cells, colorectal cancer cells including HCT-116, RKO, SW480, SW620, CT26, and MC38 cells were purchased from ATCC (American Type Culture Collection). CHO, L929, Cos-7, and all cancer cells were maintained in RPMI 1640 or DMEM supplemented with 10% FBS (Gibco FBS; Thermo Fisher Scientific, Hanover Park, IL, USA) and 1% streptomycin/penicillin. CCD18-Co cells were cultured in high-glucose Dulbecco modified Eagle medium containing 10% FBS and 1% streptomycin/penicillin. All cells were grown in 5% CO2 at 37 °C. Mycoplasma testing was regularly performed every month using the BioMycoX Mycoplasma PCR Detection Kit (CellSafe, Yongin, Republic of Korea).
(§2) Cell viability was analyzed using a Cell Counting Kit-8 (Dojindo molecular technologies, Rockville, MD, USA). Cells were seeded in 96-well plates and treated with different concentrations of 7k. At the indicated time points, CCK-8 (10 μL/well) reagents were added to the cells, followed by further incubation at 37 °C for 90 min. The absorbance at 450 nm was measured using a plate reader (BioTek instruments, Winooski, VT, USA).

colorectal cancer cells = assay: Cell viability assay (CCK-8), colorectal cancer cells; assay type: cell-based; conditions: 24 h
Method: as §1, §2

T1 sequence (Q9YGV3 1-1027): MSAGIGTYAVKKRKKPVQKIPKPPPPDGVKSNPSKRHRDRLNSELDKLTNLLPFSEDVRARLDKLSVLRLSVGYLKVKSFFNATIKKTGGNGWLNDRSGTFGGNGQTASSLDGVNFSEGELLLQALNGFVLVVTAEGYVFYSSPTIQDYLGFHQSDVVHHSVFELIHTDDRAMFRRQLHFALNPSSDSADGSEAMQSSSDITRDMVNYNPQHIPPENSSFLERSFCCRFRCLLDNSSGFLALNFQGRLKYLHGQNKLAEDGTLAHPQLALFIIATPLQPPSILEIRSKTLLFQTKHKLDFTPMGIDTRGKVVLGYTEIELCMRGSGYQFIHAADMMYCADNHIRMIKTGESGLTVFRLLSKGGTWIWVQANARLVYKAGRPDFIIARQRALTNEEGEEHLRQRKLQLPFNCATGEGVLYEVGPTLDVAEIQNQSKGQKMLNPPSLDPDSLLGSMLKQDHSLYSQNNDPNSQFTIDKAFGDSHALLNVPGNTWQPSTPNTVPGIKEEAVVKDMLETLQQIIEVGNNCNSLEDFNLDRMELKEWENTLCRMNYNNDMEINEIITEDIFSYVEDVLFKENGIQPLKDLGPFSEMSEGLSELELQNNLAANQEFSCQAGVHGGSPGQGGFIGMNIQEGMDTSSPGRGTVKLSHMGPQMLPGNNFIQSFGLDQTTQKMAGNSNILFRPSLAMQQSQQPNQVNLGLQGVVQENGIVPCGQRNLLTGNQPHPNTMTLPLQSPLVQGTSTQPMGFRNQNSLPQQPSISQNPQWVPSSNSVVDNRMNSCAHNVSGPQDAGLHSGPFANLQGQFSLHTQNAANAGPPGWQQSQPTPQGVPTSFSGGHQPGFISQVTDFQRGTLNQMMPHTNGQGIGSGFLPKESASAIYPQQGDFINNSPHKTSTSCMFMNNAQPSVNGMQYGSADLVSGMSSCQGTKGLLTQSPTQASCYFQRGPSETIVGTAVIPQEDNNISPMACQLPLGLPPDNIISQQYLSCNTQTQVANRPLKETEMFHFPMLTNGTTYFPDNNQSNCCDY
T1 sequence (Q64FF9 1-503 partner): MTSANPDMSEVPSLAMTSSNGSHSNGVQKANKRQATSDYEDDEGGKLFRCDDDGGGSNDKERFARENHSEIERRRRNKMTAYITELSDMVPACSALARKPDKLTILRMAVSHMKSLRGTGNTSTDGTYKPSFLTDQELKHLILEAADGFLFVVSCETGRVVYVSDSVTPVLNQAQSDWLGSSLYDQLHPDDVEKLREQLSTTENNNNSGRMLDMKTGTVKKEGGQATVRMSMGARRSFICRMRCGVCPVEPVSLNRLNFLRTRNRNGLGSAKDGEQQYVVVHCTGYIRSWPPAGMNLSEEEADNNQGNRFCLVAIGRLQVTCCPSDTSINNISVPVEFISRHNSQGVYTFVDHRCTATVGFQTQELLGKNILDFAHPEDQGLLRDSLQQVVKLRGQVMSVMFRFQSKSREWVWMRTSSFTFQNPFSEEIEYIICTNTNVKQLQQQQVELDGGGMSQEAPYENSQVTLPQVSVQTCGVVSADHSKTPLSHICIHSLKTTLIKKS

AhR antagonistic activity in zebrafish, in words (AhR [1])	AhR Antagonist Activity at 100 nM (AhR [1])	Structure (SMILES)	also measured
didn’t show AhR inhibition	-	CC(C)n1cc2nc(-c3cccc(N)c3)nc(NCCc3c[nH]c4ccccc34)c2n1 [Compound 7f]	
decreased AhR inhibition	-	CC(C)n1cc2nc(-c3cccc(C#N)c3)nc(NCCc3c[nH]c4ccc(O)cc34)c2n1 [Compound 7i]	
didn’t show AhR inhibition	-	CC(=O)c1cccc(-c2nc(NCCc3c[nH]c4ccccc34)c3nn(C(C)C)cc3n2)c1 [Compound 7d]	
decreased activities	-	CC(C)n1cc2nc(-c3cccc(C(=O)OC(C)(C)C)c3)nc(NCCc3c[nH]c4ccccc34)c2n1 [Compound 7m]	
didn’t show AhR inhibition	-	CC(C)n1cc2nc(-c3cccc(C(F)(F)F)c3)nc(NCCc3c[nH]c4ccccc34)c2n1 [Compound 7e]	
	+	CC(C)n1cc2nc(-c3ccccc3)nc(NCCc3c[nH]c4ccccc34)c2n1 [Compound 7a]	

Second part, the compound before the results:

Structure (SMILES)	AhR antagonistic activity in zebrafish, in words (AhR [1])	AhR Antagonist Activity at 100 nM (AhR [1])	also measured
CCCCn1cc2nc(-c3cccc(C#N)c3)nc(NCCc3c[nH]c4ccccc34)c2n1 [Compound 7h]	lower activity than that of the isopropyl compound	+++	
C[C@@H](CO)NC(=O)c1cc(-c2ccc(Cl)cc2)nn(-c2cnn(C)c2)c1=O [BAY 2416964]			IC50 (AhR [2]): 341 nM
COc1ccc(-c2cc(=O)c3ccccc3o2)cc1OC [3′,4′-dimethoxyflavone, reference compound]			tumor growth inhibition (TGI) (MC38 tumor): 37%
Cc1ccccc1-c1cc2cc(NC(=O)c3ccnn3C)ccc2[nH]1 [PX-A24590]			IC50 (AhR [2]): 60 nM
CCn1cc2nc(-c3cccc(C#N)c3)nc(NCCc3c[nH]c4ccccc34)c2n1 [Compound 7g]	lower activity than that of the isopropyl compound	+++	
C[C@@H](CO)NC(=O)c1cc(-c2ccc(Cl)cc2)nn(-c2cccc(F)c2)c1=O [BAY-128]			IC50 (AhR [2]): 39.9 nM
CC(C)n1cc2nc(-c3cccc(F)c3)nc(NCCc3c[nH]c4ccccc34)c2n1 [Compound 7j]		++++	IC50 (AhR [3]): 412 nM and 413 nM
CC(C)n1cc2nc(-c3cccc(OC(F)(F)F)c3)nc(NCCc3c[nH]c4ccccc34)c2n1 [Compound 7l]	decreased activities	+++	IC50 (AhR [3]): 301 nM
CC(C)n1cc2nc(-c3cccc(C#N)c3)nc(NCCc3c[nH]c4ccccc34)c2n1 [Compound 7c]		++++	IC50 (AhR [3]): 171 nM
CC(C)c1cnn2c(N[C@H]3CCc4[nH]c5ccccc5c4C3)nc(-c3cncc(F)c3)nc12 [IK-175]			IC50 (AhR [2]): < 500 nM
CC(C)n1cc2nc(-c3ccc(C#N)cc3)nc(NCCc3c[nH]c4ccccc34)c2n1 [Compound 7b]	better activity compared with those of the hit compound	++	
CC(C)n1cnc2c(NCCc3ccc(O)cc3)nc(-c3csc4ccccc34)nc21 [SR-1, StemRegenin 1, reference compound]		+++	cell viability of normal cells [4]: little effect; IC50 (AhR [2]): 127 nM; cell proliferation / viability of colorectal cancer cells (colorectal cancer cells): reduced the viability of colorectal cancer cells; IC50 (AhR [3]): 198 nM

Source: article PMC12567141, “Design, Synthesis and Biological Evaluation of Pyrazolopyrimidine Derivatives as Aryl Hydrocarbon Receptor Antagonists for Colorectal Cancer Immunotherapy” (Pharmaceutics, 2025)
